Where two headings read alike, the source gives them in different places.
What was measured:
[1] = tested on: patients with acute ischemic stroke treated with intravenous thrombolysis; assay: Hemorrhagic transformations and parenchymatous hemorrhages on post-treatment CT or MR; assay type: in vivo, human
Experimental: (§1) Occurrence and severity of hemorrhagic transformation, intracerebral hemorrhage and cerebral edema on post-treatment computer tomography (CT) or magnetic resonance imaging (MR) were among secondary outcomes. Others were neurological outcome at 2 hours, 24 hours and 7 days after initiation of intravenous thrombolysis, functional outcome at 3 months and infarct volume at 7 days. Infarct volume evaluation will be addressed in a following publication.

[2] = tested on: patients with acute ischemic stroke treated with intravenous thrombolysis; assay: Cerebral edema on post-treatment CT or MR; assay type: in vivo, human
Experimental: as §1

[3] = tested on: patients with acute ischemic stroke treated with intravenous thrombolysis; assay: Neurological outcome (NIHSS score); assay type: in vivo, human; settings: for mean lowering of the NIHSS score, estimate in brackets / mean lowering (improvement) of the NIHSS score: after adjustment for thrombectomy
Experimental: as §1
(§2) Clinical assessments, including determination of the NIHSS score were performed before intravenous thrombolysis and start of study treatment (baseline), 2 hours (day 0), day 1 and then daily until day 7. A final NIHSS score was included in the 3 months follow up examination. Assessment of any adverse event was done daily from day 0 to day 7, and finally at 3 months. CT scan was performed at baseline, 24 hours (accepted interval 22-36 hours) and, optionally, at 7 days, MRI at 24 h (accepted interval as for CT) and at 7 days. Definitions of hemorrhagic transformations, parenchymatous hemorrhages and edema are described in an earlier publication R1 and also listed in Table 1. At three months functional status was evaluated using the modified Rankin Scale (mRS) score. The three months follow up examinations were performed blindly at a different hospital than the one responsible for the acute treatment.
When looking at separate time points, linear regression with robust standard errors was used, while adjusting for thrombectomy. […] The choice of using AR1 correlation was made by comparing the Akaike Information Criterion to a model without AR1 correlation. […] The association between treatment groups and functional independence was analyzed using odds ratios. The statistical software Stata v.13 was used.

[4] = tested on: patients with acute ischemic stroke treated with intravenous thrombolysis; settings: Imatinib treated patients
Experimental: as §1
as §2, with “Definitions of hemorrhagic transformations, parenchymatous hemorrhages and edema are described in an earlier publication R1 and also listed in Table 1.” left out, “The three months follow up examinations were performed blindly at a different hospital than the one responsible for the acute treatment.” left out
When looking at separate time points, linear regression with robust standard errors was used, while adjusting for thrombectomy. […] The association between treatment groups and functional independence was analyzed using odds ratios. […]

[5] = oral
clinical = settings: human, plasma, po
Bcr-Abl tyrosine kinase = settings: more potent than Imatinib; cited from earlier work

SMILES: Cc1ccc(NC(=O)c2ccc(CN3CCN(C)CC3)cc2)cc1Nc1nccc(-c2cccnc2)n1 [Imatinib]
- number of hemorrhagic transformations ([1]; high dose): 3
- parenchymatous hemorrhages, PH1 type ([1]; high dose): one
- remote parenchymatous hemorrhages of the milder grade (PHr1) ([1]; high dose group): 3
- hemorrhages reported ([1]; initiation of Imatinib within 5 hours after stroke onset, high dose group, of 5 treated): no hemorrhages
- hemorrhages reported ([1]; initiation of Imatinib within 5 hours after stroke onset, low dose group, of 8 treated): 4
- hemorrhages reported ([1]; initiation of Imatinib within 5 hours after stroke onset, medium dose, of to treated): 5
- number of hemorrhagic transformations ([1]; low dose group): 6
- remote parenchymatous hemorrhages of the milder grade (PHr1) ([1]; low dose group): one
- number of hemorrhagic transformations ([1]; medium dose): 7
- parenchymatous hemorrhages, PH2 ([1]; medium dose): one
- remote parenchymatous hemorrhages of the milder grade (PHr1) ([1]; medium dose group): one
- hemorrhages reported ([1]; reperfusion treatment completed within 4.5 hours, high dose group, of 7 treated): no hemorrhages
- hemorrhages reported ([1]; reperfusion treatment completed within 4.5 hours, low dose, of 9): 5
- hemorrhages reported ([1]; reperfusion treatment completed within 4.5 hours, medium dose, of 11 treated): 6
- number of cerebral edema (CED 1-3) ([2]; high dose): to
- patients with the mildest form of edema, CED 1 ([2]; high dose): to
- patients with CED 1 at follow up ([2]; initiation of Imatinib within 5 hours after stroke onset, high dose group, of 5 patients): 2
- patients with CED 1 or 2 ([2]; initiation of Imatinib within 5 hours after stroke onset, low dose, of 8 patients): 4
- patients with CED 1 or 2 ([2]; initiation of Imatinib within 5 hours after stroke onset, medium dose, of to patients): 5
- number of cerebral edema (CED 1-3) ([2]; low dose): 6
- patients with the mildest form of edema, CED 1 ([2]; low dose): 4
- moderately severe edema (CED-2) ([2]; low dose group): Two
- moderately severe edema (CED-2) ([2]; medium dose): 1
- number of cerebral edema (CED 1-3) ([2]; medium dose): 8
- patients with the mildest form of edema, CED 1 ([2]; medium dose): 7
- patients with CED 1 ([2]; reperfusion treatment completed within 4.5 hours, high dose group, of 7 patients): 4
- patients with CED 1 or 2 ([2]; reperfusion treatment completed within 4.5 hours, low dose, of nine): 4
- patients with CED 1 or 2 ([2]; reperfusion treatment completed within 4.5 hours, medium dose, of 11): 6
- improvement on the NIHSS per 100 mg Imatinib ([3]; after adjustment for the effect of thrombectomy): 0.6 points
- lowering of the adjusted mean NIHSS score compared to control, estimate in brackets ([3]; high dose, 3 months): −4.81
- lowering of the adjusted mean NIHSS score compared to control ([3]; high dose, 3 months, p<0.019): 5 points
- lowering of the adjusted mean NIHSS score compared to control, estimate in brackets ([3]; high dose, 7 days): −5.68
- lowering of the adjusted mean NIHSS score compared to control ([3]; high dose, 7 days, p<0.019): 6 points
- mean lowering of the NIHSS score, estimate in brackets ([3]; high dose): −4.94
- mean lowering (improvement) of the NIHSS score ([3]; high dose, p<0.012): 5 points
- lowering of the adjusted mean NIHSS score compared to control ([3]; high dose, day 1, p<0.018): 5 points
- mean lowering of the NIHSS score, estimate in brackets ([3]; low dose): −2.30
- mean lowering (improvement) of the NIHSS score ([3]; low dose, p<0.259): 2 points
- mean lowering of the NIHSS score, estimate in brackets ([3]; medium dose): −3.05
- mean lowering (improvement) of the NIHSS score ([3]; medium dose, p<0.106): 3 points
- neurological outcome ([3]; treatment with Imatinib vs control): significantly improved neurological outcome
- severe disability (5 points on mRS) or death (6 points) [4]: did not occur
- mean plasma concentration of Imatinib, Day 0-Day 6 ([5]; 400 mg daily): 530 ng/mL
- mean plasma concentration of Imatinib, Day 0-Day 6 ([5]; 600 mg daily): 1094 ng/mL
- mean plasma concentration of Imatinib, Day 0-Day 6 ([5]; 800 mg daily): 2054 ng/mL
- concentration at 3 h (clinical; 400 mg): 996 ng/mL
- concentration at 3 h (clinical; 600 mg): 1570 ng/mL
- concentration at 3 h (clinical; 800 mg): 1730 ng/mL

SMILES: Cc1cn(-c2cc(NC(=O)c3ccc(C)c(Nc4nccc(-c5cccnc5)n4)c3)cc(C(F)(F)F)c2)cn1 [Nilotinib]
- potency relative to Imatinib in inhibiting Bcr-Abl tyrosine kinase activity (Bcr-Abl tyrosine kinase): 10-30 fold

Source: US10953010B2 (HAMRA INVEST AB, priority 2016, dated 2021)
